What was measured:
Cytochrome P450 1B1 [1] = target: T1, Cytochrome P450 1B1 (Homo sapiens, UniProt Q16678); assay: Inhibition of human recombinant CYP1B1 using 7-ethoxyresorufin as substrate assessed as percent enzyme activity at 1 uM after 30 mins in presence of NADPH by EROD assay relative to control; parameters: scale not given: the % may be the effect or the level left; conditions: read-out: Activity
T1 sequence (Q16678 whole entry): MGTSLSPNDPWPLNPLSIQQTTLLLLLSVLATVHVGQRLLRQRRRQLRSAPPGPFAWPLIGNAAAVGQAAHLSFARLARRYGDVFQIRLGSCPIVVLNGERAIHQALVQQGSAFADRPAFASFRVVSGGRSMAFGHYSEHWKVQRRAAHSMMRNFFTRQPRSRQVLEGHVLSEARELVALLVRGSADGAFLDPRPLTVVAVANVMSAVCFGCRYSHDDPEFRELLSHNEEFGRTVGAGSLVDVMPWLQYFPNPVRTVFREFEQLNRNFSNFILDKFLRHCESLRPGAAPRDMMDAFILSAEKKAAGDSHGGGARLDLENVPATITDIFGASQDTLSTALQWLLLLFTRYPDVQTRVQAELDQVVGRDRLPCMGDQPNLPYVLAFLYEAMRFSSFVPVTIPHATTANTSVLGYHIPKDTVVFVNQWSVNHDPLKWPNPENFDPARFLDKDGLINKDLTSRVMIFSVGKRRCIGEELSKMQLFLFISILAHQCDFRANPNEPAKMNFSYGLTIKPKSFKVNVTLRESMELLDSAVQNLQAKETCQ

CYP1A2 = target: T2, CYP1A2 (Homo sapiens, UniProt P05177); assay: Inhibition of human recombinant CYP1A2 using 7-ethoxyresorufin as substrate assessed as percent enzyme activity at 1 uM after 30 mins in presence of NADPH by EROD assay relative to control; format: ADME; parameters: scale not given: the % may be the effect or the level left; conditions: recombinant CYP1A2, probe 7-ethoxyresorufin, read-out: Activity
T2 sequence (P05177 whole entry): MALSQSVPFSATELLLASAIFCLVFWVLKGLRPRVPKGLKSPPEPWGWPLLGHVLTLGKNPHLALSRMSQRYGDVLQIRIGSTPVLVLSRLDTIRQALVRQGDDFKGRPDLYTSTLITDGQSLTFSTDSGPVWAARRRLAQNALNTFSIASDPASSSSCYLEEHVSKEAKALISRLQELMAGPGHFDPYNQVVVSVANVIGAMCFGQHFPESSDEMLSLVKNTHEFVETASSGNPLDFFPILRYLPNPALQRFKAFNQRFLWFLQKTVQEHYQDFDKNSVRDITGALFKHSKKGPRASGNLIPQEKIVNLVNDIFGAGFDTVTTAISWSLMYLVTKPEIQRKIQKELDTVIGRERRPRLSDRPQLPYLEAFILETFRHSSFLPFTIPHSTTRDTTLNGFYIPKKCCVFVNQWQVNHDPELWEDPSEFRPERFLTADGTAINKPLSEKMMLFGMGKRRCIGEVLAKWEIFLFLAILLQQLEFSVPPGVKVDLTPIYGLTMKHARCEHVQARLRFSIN

CYP1A1 = target: T3, CYP1A1 (Homo sapiens, UniProt P04798); assay: Inhibition of human recombinant CYP1A1 using 7-ethoxyresorufin as substrate assessed as percent enzyme activity at 1 uM after 15 mins in presence of NADPH by EROD assay relative to control; format: ADME; parameters: scale not given: the % may be the effect or the level left; conditions: recombinant CYP1A1, probe 7-ethoxyresorufin, read-out: Activity
T3 sequence (P04798 whole entry): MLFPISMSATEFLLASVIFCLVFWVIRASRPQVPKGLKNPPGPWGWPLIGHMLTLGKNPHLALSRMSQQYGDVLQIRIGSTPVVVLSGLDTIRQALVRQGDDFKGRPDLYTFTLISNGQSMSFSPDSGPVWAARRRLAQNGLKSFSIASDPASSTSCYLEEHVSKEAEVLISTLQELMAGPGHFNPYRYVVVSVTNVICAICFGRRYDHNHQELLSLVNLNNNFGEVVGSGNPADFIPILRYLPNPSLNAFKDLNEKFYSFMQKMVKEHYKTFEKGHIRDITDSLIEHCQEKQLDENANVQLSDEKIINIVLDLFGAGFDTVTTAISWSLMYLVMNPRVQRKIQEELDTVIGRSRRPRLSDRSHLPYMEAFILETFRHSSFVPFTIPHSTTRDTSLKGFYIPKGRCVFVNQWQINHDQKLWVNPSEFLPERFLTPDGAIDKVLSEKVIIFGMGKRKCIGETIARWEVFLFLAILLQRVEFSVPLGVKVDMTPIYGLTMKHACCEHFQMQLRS

Cytochrome P450 1B1 [2] = target: T1, Cytochrome P450 1B1; assay: Binding affinity to human C-terminal 4His-tagged CYP1B1 expressed in Escherichia coli DH5alpha assessed as spectral dissociation constant by spectrophotometric analysis; conditions: read-out: Ks
Cytochrome P450 1B1 [3] = target: T1, Cytochrome P450 1B1; assay: Inhibition of human recombinant CYP1B1 using 7-ethoxyresorufin as substrate after 30 mins in presence of NADPH by EROD assay

An activity at 0.5 h, 1 µM (Cytochrome P450 1B1 [1]) of 80.5%, an activity at 0.5 h, 1 µM (CYP1A2) of 79.1% and an activity at 0.25 h, 1 µM (CYP1A1) of 38.6% were found for `CS(=O)(=O)O[C@H]1CCC[C@@H](c2cc(=O)c3ccc4ccccc4c3o2)C1` (relative stereo) in this work.
An activity at 0.5 h, 1 µM (Cytochrome P450 1B1 [1]) of 15.1%, an activity at 0.5 h, 1 µM (CYP1A2) of 96.9% and an activity at 0.25 h, 1 µM (CYP1A1) of 17.6% were found for `CN(C)C(=S)Oc1ccc(-c2cc(=O)c3ccc4ccccc4c3o2)cc1` in this work.
An activity at 0.5 h, 1 µM (Cytochrome P450 1B1 [1]) of 23.9%, an activity at 0.5 h, 1 µM (CYP1A2) of 63% and a Kd (Cytochrome P450 1B1 [2]) of 5.7 µM were found for `CC1CCC(c2cc(=O)c3ccc4ccccc4c3o2)CC1` (mixture of isomers) in this work. It also gave an activity at 0.25 h, 1 µM (CYP1A1) of 50.2%.
An activity at 0.5 h, 1 µM (Cytochrome P450 1B1 [1]) of 83%, an activity at 0.5 h, 1 µM (CYP1A2) of 34% and an activity at 0.25 h, 1 µM (CYP1A1) of 61% were found for `O=c1cc([C@H]2C[C@@H]3C=C[C@H]2C3)oc2c1ccc1ccccc12` in this work.
An activity at 0.5 h, 1 µM (Cytochrome P450 1B1 [1]) of 1.9%, an activity at 0.5 h, 1 µM (CYP1A2) of 6.1% and an activity at 0.25 h, 1 µM (CYP1A1) of 8.7% were found for `COc1cccc(-c2cc(=O)c3ccc4ccccc4c3o2)c1` in this work.
An activity at 0.5 h, 1 µM (Cytochrome P450 1B1 [1]) of 0.2%, an activity at 0.5 h, 1 µM (CYP1A2) of -3.5% and an activity at 0.25 h, 1 µM (CYP1A1) of 7.6% were found for `Nc1cccc(-c2cc(=O)c3ccc4ccccc4c3o2)c1` in this work.
An activity at 0.5 h, 1 µM (Cytochrome P450 1B1 [1]) of 51.5%, an activity at 0.5 h, 1 µM (CYP1A2) of 57.7% and an activity at 0.25 h, 1 µM (CYP1A1) of 66.1% were found for `CS(=O)(=O)O[C@H]1CC[C@@H](c2cc(=O)c3ccc4ccccc4c3o2)CC1` in this work.
An activity at 0.5 h, 1 µM (Cytochrome P450 1B1 [1]) of 81.6%, an activity at 0.5 h, 1 µM (CYP1A2) of 74.5% and an activity at 0.25 h, 1 µM (CYP1A1) of 73.7% were found for `N[C@H]1CC[C@@H](c2cc(=O)c3ccc4ccccc4c3o2)CC1` in this work.
An activity at 0.5 h, 1 µM (Cytochrome P450 1B1 [1]) of 79.4%, an activity at 0.5 h, 1 µM (CYP1A2) of 68.2% and an activity at 0.25 h, 1 µM (CYP1A1) of 71.3% were found for `O=c1cc([C@@H]2CCC[C@H](O)C2)oc2c1ccc1ccccc12` (relative stereo) in this work.
An activity at 0.5 h, 1 µM (Cytochrome P450 1B1 [1]) of -4%, an activity at 0.5 h, 1 µM (CYP1A2) of 42.5% and an activity at 0.25 h, 1 µM (CYP1A1) of 36.1% were found for `[N-]=[N+]=NC1CCCC(c2cc(=O)c3ccc4ccccc4c3o2)C1` (mixture of isomers) in this work. The IC50 (Cytochrome P450 1B1 [3]) was 0.0903 µM.
An activity at 0.5 h, 1 µM (Cytochrome P450 1B1 [1]) of 15%, an activity at 0.5 h, 1 µM (CYP1A2) of 8.8% and a Kd (Cytochrome P450 1B1 [2]) of 264 µM were found for `C#C[C@H]1CC[C@H](c2cc(=O)c3ccc4ccccc4c3o2)CC1` in this work. For the same molecule, the activity at 0.25 h, 1 µM (CYP1A1) was 0.5%.
An activity at 0.5 h, 1 µM (Cytochrome P450 1B1 [1]) of 72.5%, an activity at 0.5 h, 1 µM (CYP1A2) of 80.3% and an activity at 0.25 h, 1 µM (CYP1A1) of 69.9% were found for `CS(=O)(=O)O[C@H]1CC[C@H](c2cc(=O)c3ccc4ccccc4c3o2)CC1` in this work.
An activity at 0.5 h, 1 µM (Cytochrome P450 1B1 [1]) of 4.4%, an activity at 0.5 h, 1 µM (CYP1A2) of 0.5% and an activity at 0.25 h, 1 µM (CYP1A1) of 31.7% were found for `CC(=O)SC1CCCC(c2cc(=O)c3ccc4ccccc4c3o2)C1` (mixture of isomers) in this work.
An activity at 0.5 h, 1 µM (Cytochrome P450 1B1 [1]) of 51.3%, an activity at 0.5 h, 1 µM (CYP1A2) of 76.2% and a Kd (Cytochrome P450 1B1 [2]) of 62.7 µM were found for `O=c1cc([C@H]2CC[C@H](O)CC2)oc2c1ccc1ccccc12` in this work. For the same molecule, the activity at 0.25 h, 1 µM (CYP1A1) was 72.7%.
An activity at 0.5 h, 1 µM (Cytochrome P450 1B1 [1]) of -0.5%, an activity at 0.5 h, 1 µM (CYP1A2) of 15.9% and an activity at 0.25 h, 1 µM (CYP1A1) of 4% were found for `COc1ccc(-c2cc(=O)c3ccc4ccccc4c3o2)cc1` in this work.
An activity at 0.5 h, 1 µM (Cytochrome P450 1B1 [1]) of 2.4%, an activity at 0.5 h, 1 µM (CYP1A2) of 68.7% and an activity at 0.25 h, 1 µM (CYP1A1) of 3.8% were found for `CN(C)C(=O)Sc1cccc(-c2cc(=O)c3ccc4ccccc4c3o2)c1` in this work.
An activity at 0.5 h, 1 µM (Cytochrome P450 1B1 [1]) of 27.9%, a Kd (Cytochrome P450 1B1 [2]) of 124 µM and an activity at 0.25 h, 1 µM (CYP1A1) of 48.3% were found for `CC(C)C1CCC(c2cc(=O)c3ccc4ccccc4c3o2)CC1` (mixture of isomers) in this work.
An activity at 0.5 h, 1 µM (Cytochrome P450 1B1 [1]) of 90.4%, an activity at 0.5 h, 1 µM (CYP1A2) of 77.3% and a Kd (Cytochrome P450 1B1 [2]) of over 1220 µM were found for `O=c1cc([C@H]2CC[C@@H](O)CC2)oc2c1ccc1ccccc12` in this work. For the same molecule, the activity at 0.25 h, 1 µM (CYP1A1) was 87.3%.
An activity at 0.5 h, 1 µM (Cytochrome P450 1B1 [1]) of 89.5%, an activity at 0.5 h, 1 µM (CYP1A2) of 95.4% and an activity at 0.25 h, 1 µM (CYP1A1) of 84.2% were found for `N[C@H]1CC[C@H](c2cc(=O)c3ccc4ccccc4c3o2)CC1` in this work.
An activity at 0.5 h, 1 µM (Cytochrome P450 1B1 [1]) of 74%, an activity at 0.5 h, 1 µM (CYP1A2) of 0% and an activity at 0.25 h, 1 µM (CYP1A1) of 43% were found for `O=c1cc([C@H]2C[C@H]3C=C[C@@H]2C3)oc2c1ccc1ccccc12` in this work.

Reference: ChEMBL document CHEMBL4308906, “Design and synthesis of selective CYP1B1 inhibitor via dearomatization of α-naphthoflavone” (Bioorg Med Chem, 2019)
